The source of these data is patent publication US12495798B2, “Nicotinamide compound and herbicidal composition comprising compound” (KOREA RESEARCH INSTITUTE OF CHEMICAL TECHNOLOGY, priority 2019, dated 2025).

A word on the pest or weed control: it is the degree to which the test organism was suppressed or injured, in per cent.

Common to all, as to experiment: Herbicidal activity test against upland field weeds (soil treatment test)
What all share (format): in vivo
Common to all, as to details: 50 g ai/ha, scale 0 (no control) to 100 (complete control)

One assay relates to black nightshade. Details: key to Soil treatment herbicidal activity, black nightshade: 0 (no control); 100 (complete control). Summed up: (§1)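 Weed control scored visually on a 0 (none) to 100 (complete) scale versus untreated pots at 14 or 21 days in greenhouse (30±5 °C, 14 h light). Test compounds, 50 or 75 g a.i./ha in 50% acetone/0.1% Tween-20, hand-sprayed onto soil one day post-sowing.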

For another assay, the system named is indian jointvetch. Details: key to Soil treatment herbicidal activity, Indian jointvetch: 0 (no control); 100 (complete control). Summed up: as §1
For another assay, the system named is bindweed. Details: key to Soil treatment herbicidal activity, Bindweed: 0 (no control); 100 (complete control). Summed up: as §1

On to `Cn1nnc(CSCc2nc(C(F)(F)F)ccc2C(=O)N(C(=O)c2ccccc2)c2nnnn2C)n1` [Compound No. 2-109, N-benzoyl-N-(1-methyl-1H-tetrazol-5-yl)-2-((((2-methyl-2H-tetrazol-5-yl)methyl)thio)methyl)-6-(trifluoromethyl)nicotinamide], for which the “Soil treatment herbicidal activity, black nightshade” value in the assay with black nightshade worked out at 100. The “Soil treatment herbicidal activity, Indian jointvetch” value with indian jointvetch turned out to be 0. Moreover, the “Soil treatment herbicidal activity, Bindweed” value in the assay with bindweed was 0.

Turning to `Cn1ncnc1COc1nc(C(F)(F)F)ccc1C(=O)Nc1nnnn1C` [Compound No. 1-45, 2-((1-methyl-1H-1,2,4-triazol-5-yl)methoxy)-N-(1-methyl-1H-tetrazol-5-yl)-6-(trifluoromethyl)nicotinamide], the “Soil treatment herbicidal activity, black nightshade” value with black nightshade worked out at 100. Besides, the “Soil treatment herbicidal activity, Indian jointvetch” value with indian jointvetch is listed as 0. Moreover, the “Soil treatment herbicidal activity, Bindweed” value in the assay on bindweed worked out at 0.

Compound `Cn1nnc(CSCc2nc(C(F)F)ccc2C(=O)Nc2nnnn2C)n1` [Compound No. 2-108, 6-(difluoromethyl)-N-(1-methyl-1H-tetrazol-5-yl)-2-((((2-methyl-2H-tetrazol-5-yl)methyl)thio)methyl)nicotinamide] showed a pest or weed control at 50 g/ha in the assay with black nightshade (Solanum nigrum) of 30%. Also, the “Soil treatment herbicidal activity, Indian jointvetch” value in the assay on indian jointvetch amounted to 0. Also, the “Soil treatment herbicidal activity, Bindweed” value in the assay on bindweed is listed as 0.
